In patent publication US9840513B2 (AbbVie S.à.r.l., priority 2015, dated 2017):
pEC50: −log10 of the molar value.

Molecular target: T1, F508delCFTR cell surface expression in CFBE41o-F508delCFTR-HRP cells (Homo sapiens, UniProt P13569, DEL508-508)
T1 construct: fused on or other part: Horseradish peroxidase (HRP) reporter inserted in the fourth exofacial (extracellular) loop of CFTR; expression is doxycycline-inducible
Experiment: Cell Surface Expression-Horse Radish Peroxidase (CSE-HRP) Assay
Type: cell-based
Details: for pEC50: CFBE41o-F508delCFTR-HRP cells, 18-24 hours at 33° C., 8-point curve, highest concentration 20 μM; for Maximum % activity (%): maximum at any tested concentration, normalized to on-plate positive control (3 μM)
Summary of the method: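 CFBE41o- cells with HRP-tagged F508delCFTR, expression induced by 0.5 μg/mL doxycycline for 72 h at 37 °C, then compound for 18-24 h at 33 °C (8-point, 3-fold, top 20 μM). Surface HRP measured by luminol luminescence; % activity normalised to 3 μM positive-control corrector; EC50 from variable-slope sigmoidal fit, three replicate plates.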

T1 sequence (P13569 with tags, fused parts or gaps DEL508-508 limits assumed): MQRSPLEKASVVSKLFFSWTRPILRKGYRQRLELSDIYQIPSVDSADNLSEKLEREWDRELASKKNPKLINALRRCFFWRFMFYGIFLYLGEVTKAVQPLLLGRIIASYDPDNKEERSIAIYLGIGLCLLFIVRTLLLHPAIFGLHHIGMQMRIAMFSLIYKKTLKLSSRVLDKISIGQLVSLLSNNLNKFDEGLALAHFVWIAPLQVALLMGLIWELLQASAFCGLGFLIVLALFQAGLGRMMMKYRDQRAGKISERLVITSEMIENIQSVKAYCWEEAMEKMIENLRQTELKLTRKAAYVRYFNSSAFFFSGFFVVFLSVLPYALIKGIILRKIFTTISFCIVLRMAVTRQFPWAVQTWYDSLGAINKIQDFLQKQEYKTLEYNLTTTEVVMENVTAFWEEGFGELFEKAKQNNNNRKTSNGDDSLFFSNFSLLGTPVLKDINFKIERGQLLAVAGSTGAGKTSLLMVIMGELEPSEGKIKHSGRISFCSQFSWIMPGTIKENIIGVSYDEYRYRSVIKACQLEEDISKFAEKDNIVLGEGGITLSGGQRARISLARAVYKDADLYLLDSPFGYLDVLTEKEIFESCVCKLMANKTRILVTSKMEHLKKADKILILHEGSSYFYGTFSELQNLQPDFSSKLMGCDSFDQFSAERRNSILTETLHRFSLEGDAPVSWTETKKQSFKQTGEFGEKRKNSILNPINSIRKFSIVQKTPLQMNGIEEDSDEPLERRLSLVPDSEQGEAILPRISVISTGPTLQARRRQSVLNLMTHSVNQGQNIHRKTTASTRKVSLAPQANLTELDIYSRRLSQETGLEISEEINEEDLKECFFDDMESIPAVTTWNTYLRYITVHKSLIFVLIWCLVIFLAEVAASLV
T1 sequence (P13569 919-1480 limits assumed, stated change not applied): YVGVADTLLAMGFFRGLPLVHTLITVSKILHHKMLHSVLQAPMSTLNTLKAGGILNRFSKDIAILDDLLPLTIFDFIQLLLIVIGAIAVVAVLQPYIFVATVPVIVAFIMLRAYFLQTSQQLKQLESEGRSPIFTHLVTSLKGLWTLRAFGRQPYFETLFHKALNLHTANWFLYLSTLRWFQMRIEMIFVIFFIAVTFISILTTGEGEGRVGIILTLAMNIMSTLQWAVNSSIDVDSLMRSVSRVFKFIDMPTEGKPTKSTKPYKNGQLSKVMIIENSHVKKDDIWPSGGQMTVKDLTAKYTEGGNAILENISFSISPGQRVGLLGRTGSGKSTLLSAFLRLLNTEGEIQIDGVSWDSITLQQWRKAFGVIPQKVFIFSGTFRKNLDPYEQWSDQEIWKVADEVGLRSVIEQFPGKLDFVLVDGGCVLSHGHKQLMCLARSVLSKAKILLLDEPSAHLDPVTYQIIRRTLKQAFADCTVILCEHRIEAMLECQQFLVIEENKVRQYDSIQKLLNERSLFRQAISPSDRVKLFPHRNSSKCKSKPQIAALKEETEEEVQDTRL

## COc1ccc2c(c1)O[C@@H](c1ccc(C(=O)NC3CCNC(=O)C3)cn1)C[C@H]2NC(=O)[C@@]1(C)COc2cc3c(cc21)OC(F)(F)O3 (stereo partly drawn) [Example 232, 6-[(2R,4R)-4-{[(7R)-2,2-difluoro-7-methyl-6,7-dihydro-2H-furo[2,3-f][1,3]benzodioxole-7-carbonyl]amino}-7-methoxy-3,4-dihydro-2H-1-benzopyran-2-yl]-N-(2-oxopiperidin-4-yl)pyridine-3-carboxamide]
  pEC50: 6.59
  Maximum % activity (%): 117%

## COc1ccc2c(c1)O[C@@H](c1ccc(C(=O)N3CCN(S(N)(=O)=O)CC3)cn1)C[C@H]2NC(=O)[C@@]1(C)COc2cc3c(cc21)OC(F)(F)O3 [Example 233, (7R)-2,2-difluoro-N-{(2R,4R)-7-methoxy-2-[5-(4-sulfamoylpiperazine-1-carbonyl)pyridin-2-yl]-3,4-dihydro-2H-1-benzopyran-4-yl}-7-methyl-6,7-dihydro-2H-furo[2,3-f][1,3]benzodioxole-7-carboxamide]
  pEC50: 7.30
  Maximum % activity (%): 112%

## COc1ccc2c(c1)O[C@@H](c1ccc(C(=O)N(C)CCO)cn1)C[C@H]2NC(=O)[C@@]1(C)COc2cc3c(cc21)OC(F)(F)O3 [Example 234, 6-[(2R,4R)-4-{[(7R)-2,2-difluoro-7-methyl-6,7-dihydro-2H-furo[2,3-f][1,3]benzodioxole-7-carbonyl]amino}-7-methoxy-3,4-dihydro-2H-1-benzopyran-2-yl]-N-(2-hydroxyethyl)-N-methylpyridine-3-carboxamide]
  pEC50: 7.40
  Maximum % activity (%): 112%

## CCN(CCO)C(=O)c1ccc([C@H]2C[C@@H](NC(=O)[C@@]3(C)COc4cc5c(cc43)OC(F)(F)O5)c3ccc(OC)cc3O2)nc1 [Example 235, 6-[(2R,4R)-4-{[(7R)-2,2-difluoro-7-methyl-6,7-dihydro-2H-furo[2,3-f][1,3]benzodioxole-7-carbonyl]amino}-7-methoxy-3,4-dihydro-2H-1-benzopyran-2-yl]-N-ethyl-N-(2-hydroxyethyl)pyridine-3-carboxamide]
  pEC50: 7.30
  Maximum % activity (%): 114%

## COc1ccc2c(c1)O[C@@H](c1ccc(C(=O)N(CCO)CCO)cn1)C[C@H]2NC(=O)[C@@]1(C)COc2cc3c(cc21)OC(F)(F)O3 [Example 236, 6-[(2R,4R)-4-{[(7R)-2,2-difluoro-7-methyl-6,7-dihydro-2H-furo[2,3-f][1,3]benzodioxole-7-carbonyl]amino}-7-methoxy-3,4-dihydro-2H-1-benzopyran-2-yl]-N,N-bis(2-hydroxyethyl)pyridine-3-carboxamide]
  pEC50: 7.15
  Maximum % activity (%): 131%

## COc1ccc2c(c1)O[C@@H](c1ccc(C(=O)N3CCOC(CO)C3)cn1)C[C@H]2NC(=O)[C@@]1(C)COc2cc3c(cc21)OC(F)(F)O3 (stereo partly drawn) [Example 237, (7R)-2,2-difluoro-N-[(2R,4R)-2-{5-[2-(hydroxymethyl)morpholine-4-carbonyl]pyridin-2-yl}-7-methoxy-3,4-dihydro-2H-1-benzopyran-4-yl]-7-methyl-6,7-dihydro-2H-furo[2,3-f][1,3]benzodioxole-7-carboxamide]
  pEC50: 7.30
  Maximum % activity (%): 121%

## COc1ccc2c(c1)O[C@@H](c1ccc(C(=O)N3CCC(O)(CCO)C3)cn1)C[C@H]2NC(=O)[C@@]1(C)COc2cc3c(cc21)OC(F)(F)O3 (stereo partly drawn) [Example 238, (7R)-2,2-difluoro-N-[(2R,4R)-2-{5-[3-hydroxy-3-(2-hydroxyethyl)pyrrolidine-1-carbonyl]pyridin-2-yl}-7-methoxy-3,4-dihydro-2H-1-benzopyran-4-yl]-7-methyl-6,7-dihydro-2H-furo[2,3-f][1,3]benzodioxole-7-carboxamide]
  pEC50: 7.10
  Maximum % activity (%): 113%
